{"source": "patent US20120171239A1", "about": "“Immunogenic Conjugates for Producing Immune Responses to Drugs of Abuse and Methods of Use” (priority 2009, published 2012)", "origin": "cited, not measured here", "tested_on": "D2", "settings": "i.v. injection of 1.0 mg/kg cocaine, PET", "data": [{"smiles": "COC(=O)[C@H]1[C@@H](OC(=O)c2ccccc2)C[C@@H]2CC[C@H]1N2C", "note": "[cocaine]", "values": [{"measurement": "reduction of FCP uptake", "result": "≤ 40", "unit": "%"}]}]}
